Assay results taken from PMC9144902, “Metal(II) Complexes of the Fluoroquinolone Fleroxacin: Synthesis, Characterization and Biological Profile” (Pharmaceutics, 2022).

How the values were obtained:
[1] = target: T1, human serum albumin (HSA) (Homo sapiens, UniProt P02768); assay: Albumin binding by tryptophan fluorescence emission quenching; conditions: for K(HSA), HSA-binding constant / kq(HSA), HSA-quenching constant: HSA 3 μM; for K(HSA), HSA-binding constant: buffer pH 7.0, Scatchard equation; for kq(HSA), HSA-quenching constant: buffer pH 7.0, λexc 295 nm, Stern–Volmer, τ0 = 10^–8 s; for HSA fluorescence, % of the initial fluorescence intensity (I/Io): λem,max = 351 nm, final value of titration (Figure S10)
T1 construct: purchased
T1 sequence (P02768 25-609): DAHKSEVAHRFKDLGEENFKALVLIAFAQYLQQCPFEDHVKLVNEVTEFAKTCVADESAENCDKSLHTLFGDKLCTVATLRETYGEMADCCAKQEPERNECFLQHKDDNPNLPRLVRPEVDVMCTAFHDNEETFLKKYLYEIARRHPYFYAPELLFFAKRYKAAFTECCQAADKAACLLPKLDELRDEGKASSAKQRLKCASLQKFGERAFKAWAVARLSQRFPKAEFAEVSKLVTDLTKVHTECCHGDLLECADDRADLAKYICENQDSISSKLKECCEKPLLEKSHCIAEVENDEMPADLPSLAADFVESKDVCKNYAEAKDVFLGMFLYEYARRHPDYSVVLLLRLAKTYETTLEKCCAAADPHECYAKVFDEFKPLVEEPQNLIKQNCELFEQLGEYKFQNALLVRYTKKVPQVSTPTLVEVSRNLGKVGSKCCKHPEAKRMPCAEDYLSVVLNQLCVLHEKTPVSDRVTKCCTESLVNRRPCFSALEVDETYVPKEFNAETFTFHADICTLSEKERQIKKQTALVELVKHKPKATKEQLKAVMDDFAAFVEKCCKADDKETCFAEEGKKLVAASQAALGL
Procedure: (§1) Serum albumins (Sas) are the most abundant serum proteins and play a role in the circulatory system, primarily in the transport of drugs and other bioactive small molecules through the bloodstream.
(§2) The SA-quenching constants (kq) for the compounds (Table 5) were calculated with the Stern–Volmer quenching equation (Equations (S2) and (S3)).
(§3) Albumin-binding constants (K) were calculated using the Scatchard equation (Equation (S4)). […]
(§4) S2. Interaction with serum albumins
(§5) The albumin–binding study for the compounds was carried out b y fluorescence emission

[2] = target: T2, bovine serum albumin (BSA) (Bos taurus, UniProt P02769); assay: as above; conditions: for K(BSA), BSA-binding constant / kq(BSA), BSA-quenching constant: BSA 3 μM; for K(BSA), BSA-binding constant: buffer pH 7.0, Scatchard equation; for kq(BSA), BSA-quenching constant: buffer pH 7.0, λexc 295 nm, Stern–Volmer, τ0 = 10^–8 s; for BSA fluorescence, % of the initial fluorescence intensity (I/Io): λem,max = 342 nm, final value of titration (Figure S11)
T2 construct: purchased
T2 sequence (P02769 25-607): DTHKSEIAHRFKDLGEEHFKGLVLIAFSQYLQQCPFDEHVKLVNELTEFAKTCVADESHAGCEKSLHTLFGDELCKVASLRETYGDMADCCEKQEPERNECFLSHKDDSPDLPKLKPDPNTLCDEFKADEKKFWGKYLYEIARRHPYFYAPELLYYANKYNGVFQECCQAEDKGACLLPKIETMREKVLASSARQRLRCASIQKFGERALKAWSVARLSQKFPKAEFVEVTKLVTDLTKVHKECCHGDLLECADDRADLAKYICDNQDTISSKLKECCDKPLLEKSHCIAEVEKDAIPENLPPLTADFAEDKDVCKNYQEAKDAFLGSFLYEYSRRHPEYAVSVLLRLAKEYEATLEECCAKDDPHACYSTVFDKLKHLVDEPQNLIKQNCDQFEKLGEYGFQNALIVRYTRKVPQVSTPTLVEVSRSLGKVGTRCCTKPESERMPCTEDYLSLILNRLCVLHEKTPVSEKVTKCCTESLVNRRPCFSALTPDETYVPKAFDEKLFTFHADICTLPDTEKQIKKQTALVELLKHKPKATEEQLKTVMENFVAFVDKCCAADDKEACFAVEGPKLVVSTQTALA
Procedure: as §1, §2, §3, §4, §5

EB–DNA adduct (CT DNA) = assay: Competitive study with EB (EB–DNA fluorescence quenching); assay type: binding, calf; conditions: for Ksv, Stern–Volmer constant: EB–DNA adduct; for ΔI/Io, percentage of EB–DNA fluorescence quenching: [EB] = 20 μM, [DNA] = 26 μM, λexc 540 nm, λem 592 nm; for EB–DNA relative fluorescence emission intensity, % of the initial (I/Io): λemission = 592 nm, final value (up to), Figure S14; for kq, EB–DNA quenching constant: τo = 23 ns
Procedure: Ethidium bromide is a typical marker of intercalation because it can intercalate between adjacent DNA bases with its planar phenanthridine ring.
The fluorescence emission spectra of the EB–DNA adduct ([EB] = 20 μM, [DNA] = 26 μM) in the absence and presence of the compounds were recorded at increasing amounts of the respective compounds. […] As a conclusion, an intercalative interaction of the complexes with CT DNA can be proposed.
The values of the Stern–Volmer constants (Ksv) for the compounds were calculated using the linear Stern–Volmer equation (Equation (S2)) and were of the order of 10^5 M^−1 (Table 8), indicating tight binding of the complexes with DNA [61]. The Ksv values for the complexes are in the range found for a number of metal(II)–quinolone complexes, and complex 12 presents the highest Ksv value (Ksv = 7.25(±0.30) × 10^5 M^−1) among the compounds studied. In addition, the EB–DNA quenching constants (kq) for the compounds were calculated with Equation (S3), assuming τo = 23 ns as the fluorescence lifetime. The values of kq (Table 8) are much higher than the value of 10^10 M^−1s^−1, indicating a static mechanism of EB–DNA fluorescence quenching induced by the compounds, which can result from the formation of a new adduct apparently consisting of each complex and DNA [61].
In order to determine and confirm the DNA–binding mode of the compounds, a competitive study with EB as an intercalating marker is performed b y fluorescence emission spectroscopy.
Therefo re, the E B–displacing abilit y of the compounds from its EB –DN A conjugate was ex amined.
The DNA–EB adduct was prepared b y addition of 20 μM EB and 26 μM CT DNA in buffer solution (150 mM NaCl and 15 mM trisodium citrate at pH 7.0). The potential intercalation of the compounds between the DNA–bases was studied by the addition of a certain amount of the compound solution into the EB–DNA adduct solution. The influence of the compounds on the EB – DNA solution was monitored through the changes of the fluorescence emission spectra at excitation […]
wavelen gth (λex ) at 540 nm [S3]. […]
room temperature in solution or in the presence of DNA, under the same experimental conditions (λex = 540 nm). Bearing t hat in mind, the observed quenching of the EB–DNA solution is evidentl y associated to the displacement of EB from its EB–DNA adduct.
The quenching effici ency (KSV) for each compound was assessed according to the Stern – Volmer equation: Io =1+ k τ [Q] = 1+ K [Q], (eq. S2) [S3] where I0 and I = the fluorescence […]
emission intensities of EB–DNA in the absence and presence of the quencher, respectivel y, [Q] = the concentration of the quencher (i.e. compounds). KSV is obtained from t he Stern–Volmer plots b y the slope of the diagram I0/ I versus [Q]. Taking τ0 = 23 ns as the fluorescence lifetime of the EB– DNA s ystem [S5], the EB –DNA quenching constants (k q) of the compounds can be determined accordin g to eq.S3: K SV = kqτo . […]
[S2] Irgi, E.P.; Geromichalos, G.D.; Balala, S.; Kljun, J.; Kalogiannis, S.; Papadopoulos, A.; Turel, I.; Psomas, G. Cobalt(II) complexes with quinolone antimicrobial drug oxolinic acid: […]
[ S 5] Heller, D.P.; Greenstock, C.L. Fluorescence lifetime analysis of DNA intercalated ethidium bromide and quenching by free d ye. Biophys. Chem . 1994, 50, 305–312.

[3] = test system: Staphylococcus aureus ATCC 6538; assay: Antimicrobial activity, MIC determination; assay type: cell-based; conditions: S. aureus; 24-h incubation, 37°C
Procedure: (§6) The in vitro antimicrobial activity of the compounds was evaluated by determining the minimum inhibitory concentration (MIC) against the Gram-positive microorganisms Staphylococcus aureus ATCC 6538 (S. aureus) and Bacillus subtilis ATCC 6633 (B. subtilis) and the Gram-negative microorganism Xanthomonas campestris ATCC 1395 (X. campestris). The affinity of the compounds for bovine serum albumin (BSA) and human serum albumin (HSA) was studied by fluorescence emission spectroscopy, and the corresponding binding constants were determined. Furthermore, the interaction of the compounds with calf-thymus DNA (CT DNA) was investigated to determine the possible mode of interaction by the following methods: (i) UV–vis spectroscopy (where the DNA-binding constants of the complexes (Kb) were also determined), (ii) DNA-viscosity measurements, (iii) cyclic voltammetry and (iv) competitive DNA-binding studies with the classic intercalator ethidium bromide (EB) performed by fluorescence emission spectroscopy.
(§7) Three bacterial strains, one Gram(−) (X. campestris) and two Gram(+) (S. aureus and B. subtilis), were used in order to test the antimicrobial activity of the compounds.
(§8) The antimicrobial activity of the compounds was evaluated b y determining their respective MIC values towards one Gram–( –) (Xanthomonas campestris ATCC 1395 (X. campestris)) and two Gram–(+) (Staphylococcus aureus ATCC 6538 (S. aureus) and Bacillus subtilis ATCC 6633 (B. subtilis)) bacterial species. Cultures of these microbial strains were grown on a rich selective agar medium and stored at 4°C. The selective media used were Nutrient Agar or Broth for B. subtilis and S. aureus, and Yeast Mold Agar or Broth for X. campestris . Cells picked from the surface of the stored cultures were used to initiate liquid pre–cultures of the same selective medium at an initial turbidity of roughl y 1 McFarland unit. Pre–cultures were incubated for 24 h in a rotar y sh aking incubator and subsequently the y were used to inoculate the test cultures used for the determination of MIC at an initial turbidity of 0.5 McFarland units. The test cultures consisted of Mueller–Hinton broth (Deben Diagnostics Ltd) containing different concentrations of the compounds. Different concentrations were achieved as follows: the compounds were freshly dissolved in DMSO to a concentration of 1 mg/mL and they were diluted with DMSO, using the method of progressive double dilution. Therefore, working solutions with decreasing concentrations of the compounds under investigation were achieved. The working solutions were subsequently diluted to the final desired concentration b y addition to the growth medium at a proportion of 2:98. MIC values were determined as the lowest concentrations of the tested compounds that inhibited visible growth of each respective organism after a 24–h incubation [ S1]. Bacterial growth was determined b y measuring the turbidit y of appropriatel y diluted cultures at 600 nm with reference to equall y diluted sterile growth medium and the inhibition achieved was calculated b y comparing the turbidit y of each culture to the average of the turbidit y of three non–inhibited cultures. All test cultures were grown in triplicates and for the determination of MIC, growth had to be inhibited in at least two cultures of the triplicate. In cubation temperatur e at all stages was 37°C ex cept for X. campestris t h at was cultivated at 28°C [S2]. […]
(§9) The fluorescence spectra of the compounds were recorded under the same experimental conditions and presented a low–intensity emission band in the region 405–410 nm .

[4] = test system: Bacillus subtilis ATCC 6633; assay: Antimicrobial activity, MIC determination; assay type: cell-based; conditions: B. subtilis; 24-h incubation, 37°C
Procedure: as §6, §7, §8, §9

[5] = test system: Xanthomonas campestris ATCC 1395; assay: Antimicrobial activity, MIC determination; assay type: cell-based; conditions: X. campestris; 24-h incubation, 28°C
Procedure: as §6, §7, §8, §9

## CN1CCN(c2c(F)cc3c(=O)c(C(=O)[O-])cn(CCF)c3c2F)CC1.CN1CCN(c2c(F)cc3c(=O)c(C(=O)[O-])cn(CCF)c3c2F)CC1.[Zn+2].c1ccc(-c2ccccn2)nc1 [complex 12, [Zn(flrx)2(bipy)]]
[1]
  K(HSA), HSA-binding constant: 1.04(±0.06) × 10^5 M^−1
  kq(HSA), HSA-quenching constant: 1.24(±0.04) × 10^13 M^−1s^−1
  HSA fluorescence, % of the initial fluorescence intensity (I/Io): 25.9%
[2]
  K(BSA), BSA-binding constant: 7.89(±0.33) × 10^4 M^−1
  kq(BSA), BSA-quenching constant: 1.74(±0.08) × 10^13 M^−1s^−1
  BSA fluorescence, % of the initial fluorescence intensity (I/Io): 14.1%
EB–DNA adduct (CT DNA)
  Ksv, Stern–Volmer constant: 7.25(±0.30) × 10^5 M^–1
  ΔI/Io, percentage of EB–DNA fluorescence quenching: 88.6%
  EB–DNA relative fluorescence emission intensity, % of the initial (I/Io): 11.4%
  kq, EB–DNA quenching constant: 3.15(±0.13) × 10^13 M^−1s^−1
[3]
  MIC: 8 µg/mL
  MIC (values in parentheses): 8.3 µM
[4]
  MIC: 8 µg/mL
  MIC (values in parentheses): 8.3 µM
[5]
  MIC: 16 µg/mL
  MIC (values in parentheses): 16.7 µM

## CN1CCN(c2c(F)cc3c(=O)c(C(=O)[O-])cn(CCF)c3c2F)CC1.CN1CCN(c2c(F)cc3c(=O)c(C(=O)[O-])cn(CCF)c3c2F)CC1.[Zn+2].c1ccc(Nc2ccccn2)nc1 [complex 13, [Zn(flrx)2(bipyam)]]
[1]
  K(HSA), HSA-binding constant: 3.69(±0.14) × 10^4 M^−1
  kq(HSA), HSA-quenching constant: 1.23(±0.05) × 10^13 M^−1s^−1
  HSA fluorescence, % of the initial fluorescence intensity (I/Io): 27.9%
[2]
  K(BSA), BSA-binding constant: 3.60(±0.14) × 10^4 M^−1
  kq(BSA), BSA-quenching constant: 3.37(±0.14) × 10^13 M^−1s^−1
  BSA fluorescence, % of the initial fluorescence intensity (I/Io): 14.6%
EB–DNA adduct (CT DNA)
  Ksv, Stern–Volmer constant: 6.51(±0.19) × 10^5 M^–1
  ΔI/Io, percentage of EB–DNA fluorescence quenching: 81.8%
  EB–DNA relative fluorescence emission intensity, % of the initial (I/Io): 18.2%
  kq, EB–DNA quenching constant: 2.84(±0.08) × 10^13 M^−1s^−1
[3]
  MIC: 8 µg/mL
  MIC (values in parentheses): 8.2 µM
[4]
  MIC: 4 µg/mL
  MIC (values in parentheses): 4.1 µM
[5]
  MIC: 16 µg/mL
  MIC (values in parentheses): 16.4 µM
